Measured values as given in US11547686B2 (priority 2017, dated 2023).
Converted amounts (≈) assume the structure as drawn. Like-named read-outs stand apart in the source and are kept apart here. Marks after values point to notes of the source that are not given here.

Assays:
[1] = Necropsy and histopathologic evaluation after intravenous infusion in rats; settings: n = 6 per group
Procedure: (§1) Blood samples were collected over a 24 h period, at which time the rats were exsanguinated, and the blood was collected for clinical pathology evaluation (chemistry, hematology, and coagulation). Finally, all the animals were necropsied (all exterior and interior cavities and organs were examined), and the site of infusion in the jugular vein, lung, liver, and kidney underwent histopathologic evaluation.

[2] = Solubility of pregabalin and acetaminophen in water at different pH values (HPLC-UV); settings: for solubility: thermodynamic from solid, Solubility of pregabalin, water
Procedure: The pH was then adjusted to the required range. The concentration of the active ingredients was determined by HPLC-UV.

[3] = Pharmacokinetic parameters after 15 min infusion in rats; settings: rats; for AUC(0-inf) / Cmax: rat, in vivo, iv
Procedure: The active ingredients were dissolved in 0.9% saline (20 mL) to achieve the desired concentration. The saline and vial constituents were mixed with by gentle swirling until a clear solution was obtained. The obtained clear solution was filtered through a sterile 0.45 μm PVDF membrane syringe filter and then used for further studies.
as §1

[4] = tested on: red blood cells (mouse whole unclotted blood); test: In vitro hemolysis test, mouse blood; settings: 15 min at 37° C.
[5] = tested on: red blood cells (rat whole unclotted blood); test: In vitro hemolysis test, rat blood; settings: 15 min at 37° C.
[6] = tested on: red blood cells (dog whole unclotted blood); test: In vitro hemolysis test, dog blood; settings: 15 min at 37° C.
[7] = tested on: red blood cells (human whole unclotted blood); test: In vitro hemolysis test, human blood; settings: 15 min at 37° C.
[8] = rats, 15 min IV infusion
Procedure: as §1

## CC(C)C[C@H](CN)CC(=O)O [Pregabalin, (3S)-3-(Aminomethyl)-5-methylhexanoic acid]
[1]; PGB 1.25 mg/kg
  Necropsy Observation: Lung Discolored: 1
  Necropsy Observation: Lung Focus: 1
[1]; PGB 5 mg/kg
  Necropsy Observation: Lung Discolored: 0
  Necropsy Observation: Lung Focus: 2
[2]; aqueous buffer, pH range of 5-7, pregabalin alone
  solubility: ~31 mg/mL (≈ 195 mM)
[2]; pH 4, aqueous buffer, pH 4, co-dissolved with acetaminophen
  solubility: 54.4 mg/mL (≈ 342 mM)
[2]; pH 4, aqueous buffer, room temperature, pH 4, pregabalin alone
  solubility: 54.4 mg/mL (≈ 342 mM)
[2]; pH 5, aqueous buffer, pH 5, co-dissolved with acetaminophen
  solubility: 36.8 mg/mL (≈ 231 mM)
[2]; pH 5, aqueous buffer, room temperature, pH 5, pregabalin alone
  solubility: 32.4 mg/mL (≈ 203 mM)
[2]; pH 6, aqueous buffer, pH 6, co-dissolved with acetaminophen
  solubility: 35 mg/mL (≈ 220 mM)
[2]; pH 6, aqueous buffer, room temperature, pH 6, pregabalin alone
  solubility: 31 mg/mL (≈ 195 mM)
[2]; pH 7, aqueous buffer, pH 7, co-dissolved with acetaminophen
  solubility: 35 mg/mL (≈ 220 mM)
[2]; pH 7, aqueous buffer, room temperature, pH 7, pregabalin alone
  solubility: 30.6 mg/mL (≈ 192 mM)
[2]; pH range of 5-7, versus pregabalin alone
  Change in the solubility of pregabalin in the presence of acetaminophen: increase
[3]; 1.25 mg/kg, AUC0-∞ of pregabalin, 15 min IV infusion, Pregabalin 1.25 mg/kg
  AUC(0-inf): 6750 ng·h/mL
[3]; 1.25 mg/kg, Cmax of pregabalin, 15 min IV infusion, Pregabalin 1.25 mg/kg
  Cmax: 2060 ng/mL
[3]; 1.25 mg/kg, Equivalence (80%-125%) range of pregabalin AUC0-∞, Pregabalin 1.25 mg/kg alone as reference
  AUC(0-inf): 5400 to 8440 ng·h/mL
[3]; 1.25 mg/kg, Equivalence (80%-125%) range of pregabalin Cmax, Pregabalin 1.25 mg/kg alone as reference
  Cmax: 1650 to 2580 ng/mL
[3]; 5 mg/kg, AUC0-∞ of pregabalin, 15 min IV infusion, Pregabalin 5 mg/kg
  AUC(0-inf): 26100 ng·h/mL
[3]; 5 mg/kg, Cmax of pregabalin, 15 min IV infusion, Pregabalin 5 mg/kg
  Cmax: 7910 ng/mL
[3]; 5 mg/kg, Equivalence (80%-125%) range of pregabalin AUC0-∞, Pregabalin 5 mg/kg alone as reference
  AUC(0-inf): 20900 to 32700 ng·h/mL
[3]; 5 mg/kg, Equivalence (80%-125%) range of pregabalin Cmax, Pregabalin 5 mg/kg alone as reference
  Cmax: 6330 to 9880 ng/mL
[3]; 15 min IV infusion
  Change in the pharmacokinetic profile of pregabalin in the presence or absence of acetaminophen: No change
[4]; PGB 0.75 mg/mL
  % Hemolysis: 0%
[4]; PGB 1.5 mg/mL
  % Hemolysis: 4%
[4]; PGB 3 mg/mL
  % Hemolysis: 0%
[5]; PGB 0.75 mg/mL
  % Hemolysis: 2%
[5]; PGB 1.5 mg/mL
  % Hemolysis: 0%
[5]; PGB 3 mg/mL
  % Hemolysis: 2%
[6]; PGB 0.75 mg/mL
  % Hemolysis: 0%
[6]; PGB 1.5 mg/mL
  % Hemolysis: 0%
[6]; PGB 3 mg/mL
  % Hemolysis: 1%
[7]; PGB 0.75 mg/mL
  % Hemolysis: 0%
[7]; PGB 1.5 mg/mL
  % Hemolysis: 7%
[7]; PGB 3 mg/mL
  % Hemolysis: 1%
[8]; PGB 1.25 mg/kg
  ALBGLOB (albumin/globulin ratio, calculated): 1.4
  ALP (alkaline phosphatase): 99 U/L
  ALT (alanine aminotransferase): 45 U/L
  APPT (Activated partial thromboplastin time): 12.9 s
  AST (aspartate aminotransferase): 93 ** U/L
  Albumin: 4.0 g/dL
  Basophils: 80 µL⁻¹
  Bilirubin: 0.02 mg/dL
  Calcium: 11.4 mg/dL
  Chloride: 102 mEq/L
  Cholesterol: 94 mg/dL
  Creatinine: 0.47 mg/dL
  Eosinophils: 280 µL⁻¹
  GLOBUL (globulin, calculated): 2.8 g/dL
  Glucose: 166 mg/dL
  Hematocrit: 44.2%
  Hemoglobin: 14.2 g/dL
  LGLUCLE (large unstained cell): 100 µL⁻¹
  Lymphocytes: 9400 µL⁻¹
  MCH (mean cell hemoglobin): 17.8 pg
  MCHC (mean cell hemoglobin concentration): 32 g/dL
  MCV (mean cell volume): 55.8 fL
  Monocytes: 500 µL⁻¹
  Neutrophils: 1400 µL⁻¹
  PHOS (inorganic phosphorus): 10.6 mg/dL
  Platelets: 908000 µL⁻¹
  Potassium: 7.3 mEq/L
  Protein: 6.7 g/dL
  Prothrombin time: 16.8 s
  RBC: 7.93e+06 µL⁻¹
  Reticulocytes: 4.11 * %
  Sodium: 148 * mEq/L
  Triglycerides: 33 mg/dL
  UREAN (blood urea nitrogen): 19 mg/dL
  WBC: 11740 µL⁻¹
[8]; PGB 5 mg/kg
  ALBGLOB (albumin/globulin ratio, calculated): 1.4
  ALP (alkaline phosphatase): 97 U/L
  ALT (alanine aminotransferase): 51 U/L
  APPT (Activated partial thromboplastin time): 12.4 s
  AST (aspartate aminotransferase): 107 U/L
  Albumin: 3.9 g/dL
  Basophils: 80 µL⁻¹
  Bilirubin: 0.02 mg/dL
  Calcium: 11.5 mg/dL
  Chloride: 101 mEq/L
  Cholesterol: 93 mg/dL
  Creatinine: 0.44 mg/dL
  Eosinophils: 350 µL⁻¹
  GLOBUL (globulin, calculated): 2.8 g/dL
  Glucose: 150 mg/dL
  Hematocrit: 45.1%
  Hemoglobin: 14.4 g/dL
  LGLUCLE (large unstained cell): 80 µL⁻¹
  Lymphocytes: 10810 µL⁻¹
  MCH (mean cell hemoglobin): 18.3 pg
  MCHC (mean cell hemoglobin concentration): 32.1 g/dL
  MCV (mean cell volume): 57.1 fL
  Monocytes: 450 µL⁻¹
  Neutrophils: 1520 µL⁻¹
  PHOS (inorganic phosphorus): 10 ** mg/dL
  Platelets: 933000 µL⁻¹
  Potassium: 6.9 * mEq/L
  Protein: 6.7 g/dL
  Prothrombin time: 16.6 s
  RBC: 7.9e+06 µL⁻¹
  Reticulocytes: 4.7%
  Sodium: 147 mEq/L
  Triglycerides: 30 mg/dL
  UREAN (blood urea nitrogen): 19 mg/dL
  WBC: 13280 µL⁻¹
